What all share (type): functional
Assay [1] concerns Aspergillus niger. Description: Antifungal activity against Aspergillus niger ATCC 6275 by agar cup-plate method relative to fluconazole. Also on record: concentration or dose not given beside the values.
For assay [2], the system named is Aspergillus niger. Description: Antifungal activity against Aspergillus niger ATCC 6275 at 10 ug/ml by agar cup-plate method. As to conditions: read-out: IZ.
The subject of assay [3] is Aspergillus niger. Kind of assay: Antifungal activity against Aspergillus niger ATCC 6275 at 20 ug/ml by agar cup-plate method. The note with it: read-out: IZ.
The subject of assay [4] is Candida albicans. Kind of assay: Antifungal activity against Candida albicans ATCC 10231 by agar cup-plate method relative to fluconazole. Also on record: concentration or dose not given beside the values.
Assay [5] deals with Candida albicans. Description: Antifungal activity against Candida albicans ATCC 10231 at 10 ug/ml by agar cup-plate method. As to conditions: read-out: IZ.
In assay [6] the test system is Candida albicans. Description: Antifungal activity against Candida albicans ATCC 10231 at 20 ug/ml by agar cup-plate method. The note with it: read-out: IZ.
Assay [7] has as its system Pseudomonas aeruginosa. Description: Antibacterial activity against Pseudomonas aeruginosa ATCC 9027 by agar cup-plate method relative to penicillin-G. Also on record: concentration or dose not given beside the values.
In assay [8] the test system is Pseudomonas aeruginosa. Kind of assay: Antibacterial activity against Pseudomonas aeruginosa ATCC 9027 at 50 ug/ml by agar cup-plate method. The note with it: read-out: IZ.
Assay [9] deals with Pseudomonas aeruginosa. Description: Antibacterial activity against Pseudomonas aeruginosa ATCC 9027 at 100 ug/ml by agar cup-plate method. The note with it: read-out: IZ.
Assay [10] concerns Escherichia coli. Description: Antibacterial activity against Escherichia coli ATCC 25922 by agar cup-plate method relative to penicillin-G. Set-up: concentration or dose not given beside the values.
For assay [11], the system named is Escherichia coli. Kind of assay: Antibacterial activity against Escherichia coli ATCC 25922 at 50 ug/ml by agar cup-plate method. As to conditions: read-out: IZ.
Assay [12] has as its system Escherichia coli. Description: Antibacterial activity against Escherichia coli ATCC 25922 at 100 ug/ml by agar cup-plate method. As to conditions: read-out: IZ.
In assay [13] the test system is Bacillus subtilis. Kind of assay: Antibacterial activity against Bacillus subtilis ATCC 6633 by agar cup plate method relative to penicillin-G. Also on record: concentration or dose not given beside the values.
Assay [14] deals with Bacillus subtilis. Kind of assay: Antibacterial activity against Bacillus subtilis ATCC 6633 at 50 ug/ml by agar cup plate method. The note with it: read-out: IZ.
Assay [15] deals with Bacillus subtilis. Kind of assay: Antibacterial activity against Bacillus subtilis ATCC 6633 at 100 ug/ml by agar cup plate method. As to conditions: read-out: IZ.
For assay [16], the system named is Staphylococcus aureus. Description: Antibacterial activity against Staphylococcus aureus ATCC 9144 by agar cup-plate method relative to penicillin-G. Also on record: concentration or dose not given beside the values.
For assay [17], the system named is Staphylococcus aureus. Kind of assay: Antibacterial activity against Staphylococcus aureus ATCC 9144 at 50 ug/ml by agar cup-plate method. The note with it: read-out: IZ.
In assay [18] the test system is Staphylococcus aureus. Description: Antibacterial activity against Staphylococcus aureus ATCC 9144 at 100 ug/ml by agar cup-plate method. The note with it: read-out: IZ.

The results in this text go back to ChEMBL document CHEMBL3045169, “In vitro evaluation of the antibacterial and antifungal activity of some new pyrazolyl-quinazolin-4(3H)-one derivatives” (2012).

Take `O=c1c2cc(I)ccc2nc(Cc2ccccc2Nc2ccccc2)n1NC1=NNC(c2ccccc2)C1` (stereo not drawn): the Activity in the assay on Aspergillus niger [1] is recorded as 58.12%; with Candida albicans [4] it was 68.81%; with Pseudomonas aeruginosa [7] it was 48.61%; with Escherichia coli [10] it was 40.81%; in the assay with Bacillus subtilis [13] it was 81.79%; in the assay with Staphylococcus aureus [16], 70.87%. Moreover, the zone of inhibition at 10 µg/mL with Aspergillus niger [2] and in the assay with Candida albicans [5] was 15 mm in each case. Further, the zone of inhibition at 20 µg/mL was determined as 17 mm in the assay on Aspergillus niger [3] and 18 mm with Candida albicans [6]. Besides, the zone of inhibition at 50 µg/mL with Pseudomonas aeruginosa [8] came to 0 mm; with Escherichia coli [11] it was 0 mm; with Bacillus subtilis [14], 18 mm; in the assay on Staphylococcus aureus [17], 17 mm. In addition, the zone of inhibition at 100 µg/mL with Pseudomonas aeruginosa [9] was found to be 7 mm; with Escherichia coli [12], 6 mm; in the assay on Bacillus subtilis [15], 22 mm; with Staphylococcus aureus [18], 21 mm.
